Data set [1] has as its system V. parahaemolyticus (CIP 73.30). In words: microbe, parasite or virus in culture. Type of data set: cell-based, Vibrio parahaemolyticus. The note with it: for MIC: read-out: MIC Vibrio parahaemo-lyticus. The procedure:
(§1) The minimal growth inhibitory concentrations (MICs) of synthetic peptides (Genecust) were evaluated on Vibrio alginolyticus (CIP 109819), V. splendidus (CIP 107715), V. aestuerianus (CIP 102971), V. anguillarum (CIP 64.14), V. parahaemolyticus (CIP 73.30), Halomonas aquamarina (CIP 105454T), Escherichia coli (CIP 54.8T), Aeromonas salmonicida (CIP 103209T), Enteroccocus faecalis (CIP 76.117) and Lactococcus garvieae (CIP 104369) obtained from the “Collection de l’Institut Pasteur”. Bacteria were cultured in adapted media: Homemade marine broth (HMB, sea salts 20 g/L, peptone 5 g/L, yeast extract 3 g/L) for Vibrio species and H. aquamarina; Luria-Bertani (peptone 10 g/L, yeast extract 5 g/L, NaCl 10 g/L) for E. faecalis and E. coli; Trypticasein Soy Broth (TSB, Conda, 40 g/L) for A. salmonicida, and Brain Heart Infusion (BHI) (Conda, 37 g/L) for L. garvieae. MICs were determined in triplicate by liquid growth inhibition assays adapted from Hetru and Bulet. Briefly, 10 µL of peptide solution were incubated in Bioscreen honeycomb-well plates with 90 µl of bacterial suspension at a starting OD600 of 0.001 in BHI for L. garvieae, poor broth (peptone 10 g/L, NaCl 5 g/L) for E. faecalis and E. coli, TSB for A. salmonicida, HMB for H. aquamarina and saline poor broth (peptone 10 g/L, NaCl 15 g/L) for Vibrio species. Bacterial growth was monitored for 16 h by measuring OD600 values every 5 min (Bioscreen C, Labsystem, Finland). The peptides were tested alone at concentrations of 5 µM, 10 µM, 20 µM and 50 µM. For synergy, peptides pairs were tested at concentrations of 5 µM, 10 µM and 20 µM. Oxytetracycline at 5 µM and 10 µM was used as a positive control, and water was used as a blank. MICs were expressed in µM as an [a]–[b] concentration interval where [a] was the last concentration with bacterial growth and [b] was the first concentration with 100% bacterial growth inhibition. MBCs (minimal bactericidal concentrations) were expressed in µM as an [a]–[b] concentration interval where [a] was the last concentration with bacterial growth and [b] was the first concentration that killed 100% of the bacteria.

Data set [2] relates to V. splendidus (CIP 107715). As to the kind of experiment: microbe, parasite or virus in culture. Type of data set: cell-based, Vibrio splendidus. The procedure: as §1
The subject of data set [3] is Aeromonas salmonicida (CIP 103209T). As to the kind of experiment: Liquid growth inhibition assay (MIC/MBC). It is filed as cell-based. The note with it: TSB, triplicate, interval [a]-[b], '-' = not active. The procedure:
as §1

Data set [4] concerns Enteroccocus faecalis (CIP 76.117). As to the kind of experiment: Liquid growth inhibition assay (MIC/MBC). Type of data set: cell-based. To be noted: Enterococcus faecalis, CIP76, poor broth, triplicate, interval [a]-[b], '-' = not active. On the procedure: as §1
Data set [5] concerns Halomonas aquamarina (CIP 105454T). As to the kind of experiment: Liquid growth inhibition assay (MIC/MBC). It is filed as cell-based. The note with it: Vreelandella aquamarina; HMB, starting OD600 0.001, 16 h, triplicate; interval [a]-[b]; '-' = not active. On the procedure:
as §1

For data set [6], the system named is Lactococcus garvieae (CIP 104369). As to the kind of experiment: Liquid growth inhibition assay (MIC/MBC). It is filed as cell-based. The note with it: CIP104369, BHI, triplicate, interval [a]-[b], '-' = not active. The procedure:
as §1

The test system of data set [7] is V. anguillarum (CIP 64.14). In words: microbe, parasite or virus in culture. Type of data set: cell-based, Vibrio anguillarum. On the procedure:
as §1

The test system of data set [8] is V. aestuerianus (CIP 102971). In words: microbe, parasite or virus in culture. It is filed as cell-based, Vibrio aestueranius. To be noted: for MBC: read-out: MBC Vibrio aestueranius. On the procedure:
as §1

Data set [9] has as its system Escherichia coli (CIP 54.8T). In words: microbe, parasite or virus in culture. Type of data set: cell-based. The procedure:
as §1

In data set [10] the test system is Vibrio alginolyticus (CIP 109819). In words: microbe, parasite or virus in culture. It is filed as cell-based. On the procedure: as §1
The subject of data set [11] is human red blood cells. Type of data set: cell-based. The procedure: The haemolytic activity of the synthetic peptides was determined in triplicate on human red blood cells (RBCs) as described by Duval and collaborators. Briefly, RBCs were pelleted and washed three times in phosphate-buffered saline (PBS). Then, they were resuspended in PBS to obtain a 1% solution of RBC. Ten microliters of peptide solution were incubated with 90 µL of the RBC 1% solution for 1 h at 37 °C. The peptides were diluted in PBS and tested at different concentrations: 5 µM, 20 µM, 50 µM and 100 µM. Haemolytic activity was determined by measuring the OD at 415 nm. Zero haemolysis and total (100%) haemolysis were determined with PBS and 1% Triton X-100 solutions, respectively.

Where two headings read alike, the source gives them in different places. No end group written: not given here. Where only a bound is given, the exact number is not on record here.

Turning to `CN(C)[C@@H]1C(O)=C(C(N)=O)C(=O)[C@@]2(O)C(O)=C3C(=O)c4c(O)cccc4[C@@](C)(O)[C@H]3[C@H](O)[C@@H]12` [Ox, Oxytetracycline], the MIC is at most 5 µM in [1] (Vibrio parahaemolyticus, CIP73, saline poor broth, starting OD600 0.001, 16 h, triplicate, interval [a]-[b], '-' = not active); at most 5 µM in data set [1] (saline poor broth, starting OD600 0.001, 16 h, triplicate, interval [a]-[b], '-' = not active); at most 5 µM in data set [2] (Vibrio splendidus, CIP107715, saline poor broth, starting OD600 0.001, 16 h, triplicate, interval [a]-[b], '-' = not active); at most 5 µM in data set [2] (saline poor broth, starting OD600 0.001, 16 h, triplicate, interval [a]-[b], '-' = not active, read-out: MIC Vibrio splendidus); at most 5 µM in data set [3] (starting OD600 0.001, 16 h); at most 5 µM in data set [4] (starting OD600 0.001, 16 h). Besides, the MIC is over 10 µM in data set [5]; at most 5 µM in data set [6] (starting OD600 0.001, 16 h); at most 5 µM in data set [7] (Vibrio anguillarum, CIP64, saline poor broth, starting OD600 0.001, 16 h, triplicate, interval [a]-[b], '-' = not active); at most 5 µM in data set [8] (Vibrio, CIP102971, saline poor broth, starting OD600 0.001, 16 h, triplicate, interval [a]-[b], '-' = not active, read-out: MIC Vibrio aestueranius); at most 5 µM in data set [9] (Escherichia coli, CIP54, poor broth, starting OD600 0.001, 16 h, triplicate, interval [a]-[b], '-' = not active); at most 5 µM in data set [10] (Vibrio alginolyticus, CIP109819, saline poor broth, starting OD600 0.001, growth monitored 16 h, triplicate, interval [a]-[b], b = first concentration with 100% growth inhibition, peptides 5-50 µM, pairs 5-20 µM, oxytetracycline 5 and 10 µM, '-' = not active). The MIC in data set [10] (saline poor broth, starting OD600 0.001, growth monitored 16 h, triplicate, interval [a]-[b], b = first concentration with 100% growth inhibition, peptides 5-50 µM, pairs 5-20 µM, oxytetracycline 5 and 10 µM, '-' = not active) is at most 5 µM. Besides, the MBC in [1] (Vibrio parahaemolyticus, CIP73, saline poor broth, triplicate, interval [a]-[b], '-' = not active, read-out: MBC Vibrio parahaemo-lyticus) was at most 5 µM; in [2] (Vibrio splendidus, CIP107715, saline poor broth, triplicate, interval [a]-[b], '-' = not active), at most 5 µM; in [3] it was at most 5 µM; in data set [4], 5 to 10 µM; in data set [6], over 10 µM; in data set [7] (Vibrio anguillarum, CIP64, saline poor broth, triplicate, interval [a]-[b], '-' = not active) it was at most 5 µM. The MBC in data set [8] (Vibrio, CIP102971, saline poor broth, triplicate, interval [a]-[b], '-' = not active) is at most 5 µM; in data set [9] (Escherichia coli, CIP54, poor broth, triplicate, interval [a]-[b], '-' = not active), at most 5 µM; in [10] (Vibrio alginolyticus, CIP109819, saline poor broth, triplicate, interval [a]-[b], b = first concentration that killed 100% of the bacteria, '-' = not active), at most 5 µM.
Turning to ASSFLTPRLSSLGKRSWAV [AV19], in data set [1] (CIP 73, 16 h), the “MBC Vibrio parahaemo-lyticus” value was 20 to 50 µM and the “MIC Vibrio parahaemo-lyticus” value is 10 to 20 µM. Moreover, in [11], the “concentrations at which haemolytic” value was in the range of 50 to 100 µM. For the same molecule, in data set [2] (CIP 107715, 16 h), the “MBC Vibrio splendidus” value lay within 10 to 20 µM and the “MIC Vibrio splendidus” value was 10 to 20 µM.
Regarding GFCNFMHLKPISRELRRELYGRTRRRRK [GK28], in data set [1] (CIP 73, 16 h), the “MBC Vibrio parahaemo-lyticus” value lay in the range of 10 to 20 µM and the MIC was at most 5 µM. Also, the MBC in data set [2] (CIP 107715, 16 h, read-out: MBC Vibrio splendidus) is listed as at most 5 µM. For the same molecule, the MIC in data set [2] (CIP 107715, 16 h, read-out: MIC Vibrio splendidus) is listed as at most 5 µM. Besides, in data set [7] (CIP 64, 16 h), the “MBC Vibrio anguillarum” value is 20 to 50 µM and the “MIC Vibrio anguillarum” value fell in the range of 10 to 20 µM. In data set [8] (CIP 102971, 16 h), the “MIC Vibrio aestueranius” value fell in the range of 10 to 20 µM and the MBC is listed as over 50 µM. In data set [9] (CIP 54, 16 h), the “MBC Escherichia coli” value was 20 to 50 µM and the MIC is on record as at most 5 µM. In addition, in data set [10] (CIP 109819, 16 h), the MIC is given as at most 5 µM. Besides, the “MBC Vibrio alginolyticus” value in [10] (saline poor broth, triplicate, interval [a]-[b], b = first concentration that killed 100% of the bacteria, '-' = not active) lay in the range of 20 to 50 µM.
Take NYWLLVLRRLLITKKVMWF [NF19]: in data set [11], the “concentrations at which haemolytic” value lay within 50 to 100 µM. In data set [2] (CIP 107715, 16 h), the “MBC Vibrio splendidus” value fell in the range of 10 to 20 µM and the “MIC Vibrio splendidus” value lay in the range of 5 to 10 µM.
